Measured values published in patent US20120016011A1, “RNA Interference Mediated Inhibition of Connective Tissue Growth Factor (CTGF) Gene Expression Using Short Interfering Nucleic Acid (siNA)” (Merck Sharp & Dohme Corp., priority 2009, published 2012).
[invAb] = inverted abasic unit; m = 2'-O-methyl; r = 2'-OH (RNA); f = 2'-fluoro

Key:
[1] = tested on: CTGF mRNA; assay: CTGF mRNA knockdown (Taqman RT-PCR) after siNA transfection of human NHLF cells; format: cell-based; settings: 10 nM siNA, 24 hrs, average of 3 experiments, vs non-targeting control
Protocol: NHLF (Normal human lung fibroblasts; Lonza cat# CC-2512): Cells were cultured at 37° C. in the presence of 5% CO2 and grown in Fibroblast Basal Medium (Lonza cat# CC-3132) supplemented with 2% FBS and growth factors (provided with the kit) and 100 μg/mL of streptomycin and 100 U/mL penicillin.
(§1) Cells were plated in all wells of a tissue-culture treated, 96-well plate at a final count of 5000 cells/well in […], of the appropriate culture media. The cells were cultured for 24 hours after plating at 37° C. in the presence of 5% CO2.
(§2) After 24 hours, complexes containing siNA and RNAiMax were created as follows: A solution of RNAiMax diluted 33-fold in OPTI-MEM was prepared. In parallel, solutions of the siNAs for testing were prepared to a final concentration of 120 nM in OPTI-MEM. After incubation of RNAiMax/OPTI-MEM solution at room temperature for 5 min, an equal volume of the siNA solution and the RNAiMax solution were added together for each of the siNAs.
(§3) This solution was incubated at room temperature for 20 minutes. After incubation, 20 uL of the solution was added to each of the relevant wells. The final concentration of siNA in each well was 10 nM and the final volume of RNAiMax in each well was 0.3 ul.
(§4) The time of incubation with the RNAiMax-siNA complexes was 24 hours and there was no change in media between transfection and harvesting, unless otherwise indicated.
(§5) RNA was extracted from a 96-well plate using the TaqMan® Gene Expression Cells-to-CT™ Kit (Cat# 4399002) with a modified protocol. Briefly, a 60 uL (1 plate) or 110 uL (2 plates) of the Lysis Solution with DNase I was dispensed into each well of the Lysis Buffer Plate (twin.tec full skirt plate). The lysis buffer and stop plates were stored at 4° C. until the cells were washed.
(§6) The plate was spun at 1100 rpm for 5 minutes. The culture medium was aspirated and discarded from the wells of the culture plate. The lysis was performed automatically using a BioMek FX instrument and method. After the Biomek method was completed, the lysis plate was incubated for 2 min. at room temperature. The lysis plate can be stored for 2 hours at 4° C., or at −20° C. or −80° C. for two months.
(§7) Each well of the reverse transcription plate required 10 uL of 2× reverse transcriptase Buffer, 1 uL of 20× reverse transcription enzyme and 2 uL of nuclease-free water. The reverse transcription master mix was prepared by mixing 2× reverse transcription buffer, 20× reverse transcription enzyme mix, and nuclease-free water. 13 uL of the reverse transcription master mix was dispensed into each well of the reverse transcription plate (semi-skirted). A separate reverse transcription plate was prepared for each cell plate. The plate was loaded onto a Biomek NX or Biomek FX Dual -96 and the Biomek method was run. The program is programmed to automatically added 7 uL of lysate from the cell lysis procedure described above into each well of the reverse transcription plate. The plate is sealed and spun on a centrifuge (1000 rpm for 30 seconds) to settle the contents to the bottom of the reverse transcription plate. The plate is placed in a thermocycler at 37° C. for 60 min, 95° C. for 5 min, and 4° C. until the plate is removed from the thermocycler. Upon removal, if not used immediately, the plate was frozen at −20° C.
(§8) A series of probes and primers were used to detect the various mRNA transcripts of the genes of β-Actin (human cell line only), and of CTGF and GAPDH in mouse and human cell lines. All Taqman probes and primers for the experiments here-in described were supplied as pre-validated sets by Applied Biosystems, Inc. (see Table 3).
The assays were performed on an ABI 7900 instrument, according to the manufacturer's instructions. A TaqMan Gene Expression Master Mix (provided in the Cells-to-CT™, Applied Biosystems, Cat # 4399002) was used. The PCR reactions were carried out at 50° C. for 2 min, 95° C. for 20 min followed by 40 cycles at 95° C. for 15 secs and 60° C. for 1 min. […]

[2] = tested on: CTGF mRNA; assay: CTGF mRNA knockdown (Taqman RT-PCR) after siNA transfection of mouse NIH 3T3 cells; format: cell-based; settings: mouse NIH3T3 cells, 10 nM siNA, 24 hrs, average of 3 experiments, vs non-targeting control
Protocol: NIH 3T3 (mouse; ATCC cat# CRL-1658): Cells were cultured at 37° C. in the presence of 5% CO2 and grown in Dulbecco's modified Eagle's medium (DMEM) with 4 mM L-glutamine adjusted to contain 1.5 g/L sodium bicarbonate and 4.5 g/L glucose and supplemented with fetal bovine serum at a final concentration of 10%, 100 μg/mL of streptomycin, and 100 U/mL penicillin.
as §1, §2, §3, §4, §5, §6, §7, §8
The assays were performed on an ABI 7900 instrument, according to the manufacturer's instructions. A TaqMan Gene Expression Master Mix (provided in the Cells-to-CT™, Applied Biosystems, Cat # 4399002) was used. […]

Row | Substance | % KD Human [1] [%] | % KD Mouse [2] [%]
1 | 48068-DC: siNA duplex; sense SEQ ID NO: 101 B uGGuuucGAGAcAGuuuAc TTB; antisense SEQ ID NO: 102 GUAAAcuGucucGAAAccAUU (sense UGGUUUCGAGACAGUUUACTT; antisense GUAAACUGUCUCGAAACCAUU; sense: DNA at AGT, 2'-fluoro at CU, [invAb] at 5' end, 3' end, backbone not given here; antisense: sugars from the 5' end rrrmmffmffffmmmmffmmm, backbone not given here) | 12 ± 22 | 65 ± 3
2 | 48074-DC: siNA duplex; sense SEQ ID NO: 113 B GGAGGAAcuAucccAccAA TTB; antisense SEQ ID NO: 114 UUGGuGGGAuAGuuccuccUU (sense GGAGGAACUAUCCCACCAATT; antisense UUGGUGGGAUAGUUCCUCCUU; sense: DNA at AGT, 2'-fluoro at CU, [invAb] at 5' end, 3' end, backbone not given here; antisense: sugars from the 5' end rrrmfmmmmfmmfffffffmm, backbone not given here) | 3 ± 9 | 21 ± 2
3 | 48073-DC: siNA duplex; sense SEQ ID NO: 111 B GGAGAcAuGGcGuAAAGcc TTB; antisense SEQ ID NO: 112 GGCuuuAcGccAuGucuccUU (sense GGAGACAUGGCGUAAAGCCTT; antisense GGCUUUACGCCAUGUCUCCUU; sense: DNA at AGT, 2'-fluoro at CU, [invAb] at 5' end, 3' end, backbone not given here; antisense: sugars from the 5' end rrrfffmfmffmfmfffffmm, backbone not given here) | 7 ± 7 | 25 ± 8
4 | 48061-DC: siNA duplex; sense SEQ ID NO: 87 B AcucAuuAGAcuAuAAcuu TTB; antisense SEQ ID NO: 88 AAGuuAuAGucuAAuGAGuUU (sense ACUCAUUAGACUAUAACUUTT; antisense AAGUUAUAGUCUAAUGAGUUU; sense: DNA at AGT, 2'-fluoro at CU, [invAb] at 5' end, 3' end, backbone not given here; antisense: sugars from the 5' end rrrffmfmmfffmmfmmmfmm, backbone not given here) | 30 ± 12 | 73 ± 5
5 | 48044-DC: siNA duplex; sense SEQ ID NO: 53 B GuGuGcAccGccAAAGAuG TTB; antisense SEQ ID NO: 54 CAUcuuuGGcGGuGcAcAcUU (sense GUGUGCACCGCCAAAGAUGTT; antisense CAUCUUUGGCGGUGCACACUU; sense: DNA at AGT, 2'-fluoro at CU, [invAb] at 5' end, 3' end, backbone not given here; antisense: sugars from the 5' end rrrffffmmfmmfmfmfmfmm, backbone not given here) | −16 ± 8 | −18 ± 5
6 | 48080-DC: siNA duplex; sense SEQ ID NO: 125 B AGGAAGAuGuAcGGAGAcA TTB; antisense SEQ ID NO: 126 UGUcuccGuAcAucuuccuUU (sense AGGAAGAUGUACGGAGACATT; antisense UGUCUCCGUACAUCUUCCUUU; sense: DNA at AGT, 2'-fluoro at CU, [invAb] at 5' end, 3' end, backbone not given here; antisense: sugars from the 5' end rrrffffmfmfmfffffffmm, backbone not given here) | 71 ± 2 | 56 ± 2
7 | 48053-DC: siNA duplex; sense SEQ ID NO: 71 B cAGAGAGuGAGAGAcAuuA TTB; antisense SEQ ID NO: 72 UAAuGucucucAcucucuGUU (sense CAGAGAGUGAGAGACAUUATT; antisense UAAUGUCUCUCACUCUCUGUU; sense: DNA at AGT, 2'-fluoro at CU, [invAb] at 5' end, 3' end, backbone not given here; antisense: sugars from the 5' end rrrfmffffffmffffffmmm, backbone not given here) | 45 ± 7 | 26 ± 9
8 | 48075-DC: siNA duplex; sense SEQ ID NO: 115 B ccucAGAcAcuGGuuucGA TTB; antisense SEQ ID NO: 116 UCGAAAccAGuGucuGAGGUU (sense CCUCAGACACUGGUUUCGATT; antisense UCGAAACCAGUGUCUGAGGUU; sense: DNA at AGT, 2'-fluoro at CU, [invAb] at 5' end, 3' end, backbone not given here; antisense: sugars from the 5' end rrrmmmffmmfmfffmmmmmm, backbone not given here) | 36 ± 9 | 69 ± 2
9 | 48057-DC: siNA duplex; sense SEQ ID NO: 79 B cuAuuuGAAGuGuAAuuGA TTB; antisense SEQ ID NO: 80 UCAAuuAcAcuucAAAuAGUU (sense CUAUUUGAAGUGUAAUUGATT; antisense UCAAUUACACUUCAAAUAGUU; sense: DNA at AGT, 2'-fluoro at CU, [invAb] at 5' end, 3' end, backbone not given here; antisense: sugars from the 5' end rrrmffmfmffffmmmfmmmm, backbone not given here) | 80 ± 5 | 26 ± 5
10 | 48079-DC: siNA duplex; sense SEQ ID NO: 123 B ucAAGAccuGuGccuGccA TTB; antisense SEQ ID NO: 124 UGGcAGGcAcAGGucuuGAUU (sense UCAAGACCUGUGCCUGCCATT; antisense UGGCAGGCACAGGUCUUGAUU; sense: DNA at AGT, 2'-fluoro at CU, [invAb] at 5' end, 3' end, backbone not given here; antisense: sugars from the 5' end rrrfmmmfmfmmmffffmmmm, backbone not given here) | 21 ± 11 | 17 ± 6
11 | 48070-DC: siNA duplex; sense SEQ ID NO: 105 B AcuGGuuucGAGAcAGuuu TTB; antisense SEQ ID NO: 106 AAAcuGucucGAAAccAGuUU (sense ACUGGUUUCGAGACAGUUUTT; antisense AAACUGUCUCGAAACCAGUUU; sense: DNA at AGT, 2'-fluoro at CU, [invAb] at 5' end, 3' end, backbone not given here; antisense: sugars from the 5' end rrrffmffffmmmmffmmfmm, backbone not given here) | 9 ± 21 | 56 ± 2
12 | 48039-DC: siNA duplex; sense SEQ ID NO: 43 B ccuAucAAGuuuGAGcuuu TTB; antisense SEQ ID NO: 44 AAAGcucAAAcuuGAuAGGUU | 81 ± 3 | 21±7
